Assay results reported in patent US11053204B2, “Pyrimidinyloxy benzene derivatives as herbicides” (FMC Corporation, priority 2015, dated 2021).

Experiments:
Format in all cases: in vivo
[1] = system: Italian ryegrass (Lolium multiflorum); experiment: Test A preemergence, visual injury rating; conditions: 0 to 100 scale (0 no effect, 100 complete control)
How it was run: (§1)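 Scoring: eye-based comparison with untreated controls, 0 for no effect through 100 for complete control, at about day 10. Treatments: directed soil spray preemergence; foliar spray postemergence on 2–10 cm plants at the one- to two-leaf stage. Medium: loam soil with sand.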

[2] = system: barnyardgrass (Echinochloa crus-galli); experiment: Test A preemergence, visual injury rating; conditions: 0 to 100 scale (0 no effect, 100 complete control)
How it was run: as §1

[3] = system: giant foxtail (Setaria faberii); experiment: Test A preemergence, visual injury rating; conditions: 0 to 100 scale (0 no effect, 100 complete control)
How it was run: as §1

kochia (Kochia scoparia) [4] = experiment: Test A preemergence, visual injury rating; conditions: 0 to 100 scale (0 no effect, 100 complete control)
How it was run: as §1

[5] = system: pigweed (Amaranthus retroflexus); experiment: Test A preemergence, visual injury rating; conditions: 0 to 100 scale (0 no effect, 100 complete control)
How it was run: as §1

[6] = system: ragweed (common ragweed, Ambrosia elatior); experiment: Test A preemergence, visual injury rating; conditions: 0 to 100 scale (0 no effect, 100 complete control)
How it was run: as §1

[7] = system: ducksalad (Heteranthera limosa); experiment: Test B flooded paddy test, plant response rating; conditions: 250 g ai/ha; Flood; scale of 0 to 100 where 0 is no effect and 100 is complete control; 13 to 15 days
How it was run: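 Visual injury ratings against untreated controls, taken 13 to 15 days after compound was added to paddy water standing 3 cm above the soil.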

[8] = system: barnyardgrass (Echinochloa crus-galli); experiment: Test C postemergence, plant response rating; conditions: for Plant response rating, Barnyardgrass: scale 0 to 100; for Barnyardgrass plant response rating: scale 0 to 100 (0 no effect, 100 complete control)
How it was run: (§2)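 Pre-emergence: seeds sown in loam soil–sand blend or silt loam and sprayed with test chemicals in a non-phytotoxic solvent mixture with surfactant. Post-emergence: plants 2 to 18 cm (1- to 4-leaf stage) in peat-based potting medium, same formulation. Greenhouse 13 to 15 d; visual rating 0 (no effect) to 100 (complete control) versus controls.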

corn (Zea mays) = experiment: Test C postemergence, plant response rating; conditions: for Corn plant response rating: scale 0 to 100 (0 no effect, 100 complete control)
How it was run: as §2

[9] = system: crabgrass, large (large crabgrass, Digitaria sanguinalis); experiment: Test C postemergence, plant response rating; conditions: for Crabgrass, Large plant response rating: scale 0 to 100 (0 no effect, 100 complete control)
How it was run: as §2

kochia (Kochia scoparia) [10] = experiment: Test C postemergence, plant response rating; conditions: for Kochia plant response rating: scale 0 to 100 (0 no effect, 100 complete control)
How it was run: as §2

[11] = system: lambsquarters (Chenopodium album); experiment: Test C postemergence, plant response rating; conditions: for Lambsquarters plant response rating: scale 0 to 100 (0 no effect, 100 complete control)
How it was run: as §2

[12] = system: morningglory (Ipomoea coccinea); experiment: Test C postemergence, plant response rating; conditions: for Morningglory plant response rating: scale 0 to 100 (0 no effect, 100 complete control)
How it was run: as §2

[13] = system: nutsedge, yellow (yellow nutsedge, Cyperus esculentus); experiment: Test C postemergence, plant response rating; conditions: for Nutsedge, Yellow plant response rating: scale 0 to 100 (0 no effect, 100 complete control)
How it was run: as §2

[14] = system: oat, wild (wild oat Avena fatua); experiment: Test C postemergence, plant response rating; conditions: for Oat, Wild plant response rating: scale 0 to 100 (0 no effect, 100 complete control)
How it was run: as §2

[15] = system: ragweed (common ragweed, Ambrosia elatior); experiment: Test C postemergence, plant response rating; conditions: for Ragweed plant response rating: scale 0 to 100 (0 no effect, 100 complete control)
How it was run: as §2

[16] = system: velvetleaf (Abutilon theophrasti); experiment: Test C postemergence, plant response rating
How it was run: as §2

## O=C(CCCC(F)(F)F)c1c(Oc2ncc(Cl)cn2)cccc1C(F)(F)F [Compound 125]
[1]; 125 g ai/ha
  Plant response rating, Ryegrass, Italian: 70
[1]; 500 g ai/ha
  Ryegrass, Italian plant response rating: 100
[2]; 125 g ai/ha
  Plant response rating, Barnyardgrass: 100
[2]; 500 g ai/ha
  Barnyardgrass plant response rating: 100
[3]; 125 g ai/ha
  Plant response rating, Foxtail, Giant: 100
[3]; 500 g ai/ha
  Foxtail, Giant plant response rating: 100
Kochia (Kochia scoparia) [4]; 125 g ai/ha
  Plant response rating, Kochia: 100
Kochia (Kochia scoparia) [4]; 500 g ai/ha
  Kochia plant response rating: 100
[5]; 125 g ai/ha
  Plant response rating, Pigweed: 100
[5]; 500 g ai/ha
  Pigweed plant response rating: 100
[6]; 125 g ai/ha
  Plant response rating, Ragweed: 20
[6]; 500 g ai/ha
  Ragweed plant response rating: 40
[7]
  Plant response rating, Ducksalad: 70
[8]; 16 g ai/ha
  Plant response rating, Barnyardgrass: 5
[8]; 31 g ai/ha
  Plant response rating, Barnyardgrass: 5
[8]; 62 g ai/ha
  Barnyardgrass plant response rating: 5
[8]; 125 g ai/ha
  Barnyardgrass plant response rating: 10
Corn (Zea mays); 16 g ai/ha, scale of 0 to 100
  Plant response rating, Corn: 10
Corn (Zea mays); 31 g ai/ha, scale 0 to 100
  Plant response rating, Corn: 10
Corn (Zea mays); 62 g ai/ha
  Corn plant response rating: 15
Corn (Zea mays); 125 g ai/ha
  Corn plant response rating: 20
[9]; 16 g ai/ha, scale of 0 to 100
  Plant response rating, Crabgrass, Large: 10
[9]; 31 g ai/ha, scale 0 to 100
  Plant response rating, Crabgrass, Large: 10
[9]; 62 g ai/ha
  Crabgrass, Large plant response rating: 15
[9]; 125 g ai/ha
  Crabgrass, Large plant response rating: 20
Kochia (Kochia scoparia) [10]; 16 g ai/ha, scale of 0 to 100
  Plant response rating, Kochia: 85
Kochia (Kochia scoparia) [10]; 31 g ai/ha, scale 0 to 100
  Plant response rating, Kochia: 90
Kochia (Kochia scoparia) [10]; 62 g ai/ha
  Kochia plant response rating: 95
Kochia (Kochia scoparia) [10]; 125 g ai/ha
  Kochia plant response rating: 98
[11]; 16 g ai/ha, scale of 0 to 100
  Plant response rating, Lambsquarters: 70
[11]; 31 g ai/ha, scale 0 to 100
  Plant response rating, Lambsquarters: 98
[11]; 62 g ai/ha
  Lambsquarters plant response rating: 95
[11]; 125 g ai/ha
  Lambsquarters plant response rating: 100
[12]; 16 g ai/ha, scale of 0 to 100
  Plant response rating, Morningglory: 20
[12]; 31 g ai/ha, scale 0 to 100
  Plant response rating, Morningglory: 45
[12]; 62 g ai/ha
  Morningglory plant response rating: 50
[12]; 125 g ai/ha
  Morningglory plant response rating: 75
[13]; 16 g ai/ha, scale of 0 to 100
  Plant response rating, Nutsedge, Yellow: 5
[13]; 31 g ai/ha, scale 0 to 100
  Plant response rating, Nutsedge, Yellow: 5
[13]; 62 g ai/ha
  Nutsedge, Yellow plant response rating: 5
[13]; 125 g ai/ha
  Nutsedge, Yellow plant response rating: 10
[14]; 16 g ai/ha, scale of 0 to 100
  Plant response rating, Oat, Wild: 5
[14]; 31 g ai/ha, scale 0 to 100
  Plant response rating, Oat, Wild: 10
[14]; 62 g ai/ha
  Oat, Wild plant response rating: 15
[14]; 125 g ai/ha
  Oat, Wild plant response rating: 15
[15]; 16 g ai/ha, scale of 0 to 100
  Plant response rating, Ragweed: 5
[15]; 31 g ai/ha, scale 0 to 100
  Plant response rating, Ragweed: 35
[15]; 62 g ai/ha
  Ragweed plant response rating: 45
[15]; 125 g ai/ha
  Ragweed plant response rating: 55
[16]; 16 g ai/ha, scale of 0 to 100
  Plant response rating, Velvetleaf: 20
[16]; 31 g ai/ha, scale 0 to 100
  Plant response rating, Velvetleaf: 35
[16]; 125 g ai/ha, scale 0 to 100 (0 no effect, 100 complete control)
  Velvetleaf plant response rating: 30
